Test results as given in ChEMBL document CHEMBL4804286, “3-amino-4-(4-(4 (dimethylcarbamoyl) phenyl)-1,4-diazepan-1-yl) thieno [2,3-b] pyridine-2-carboxamide for use in cancer therapy and formulations comprising the same” (2020).
Calls of active or inactive are those of the source. The calls are words filed in the database; no cut-off is given here.

What was measured:
[1] = target: Cyclin-dependent kinase 8/19 (Homo sapiens, UniProt P49336+Q9BWU1); details: ST-2
Description: Inhibition of CDK8/CDK19 in ST2 cells by alkaline phosphatase activity assay

CWR22R [2] = experiment: Antitumor activity against human 22Rv1 cells expressing AR-V7 xenografted in male nude mouse assessed as suppression of tumor growth at 133 mg/kg, administered once a day for 20 days; type: functional, organism-based
CWR22R [3] = experiment: Antitumor activity against human 22Rv1 cells expressing AR-V7 xenografted in male nude mouse assessed as suppression of tumor growth at 66 mg/kg, administered twice a day for 20 days; type: functional, organism-based
Myc-CaP [4] = experiment: Antiproliferative activity against murine castration-resistant Myc-CaP cells at 1 uM assessed as growth inhibition relative to control; type: functional; details: Mus musculus
Myc-CaP [5] = experiment: Antiproliferative activity against murine castration-resistant Myc-CaP cells at 1 uM assessed as growth inhibition in presence of 5 uM enzalutamide relative to control; type: functional; details: Mus musculus
Myc-CaP [6] = experiment: Inhibition of colony formation in murine castration-resistant Myc-CaP cells at 1 uM by clonogenic assay; type: functional; details: Mus musculus
Myc-CaP [7] = experiment: Inhibition of colony formation in murine castration-resistant Myc-CaP cells at 1 uM in presence of 5 uM enzalutamide by clonogenic assay relative to control; type: functional; details: Mus musculus
4T1 = experiment: Antitumor activity against murine 4T1 cells xenografted in mouse assessed as suppression of tumor volume at 50 mg/kg, po; type: functional, organism-based

Sequence of Cyclin-dependent kinase 8/19 (P49336 whole entry, looked up): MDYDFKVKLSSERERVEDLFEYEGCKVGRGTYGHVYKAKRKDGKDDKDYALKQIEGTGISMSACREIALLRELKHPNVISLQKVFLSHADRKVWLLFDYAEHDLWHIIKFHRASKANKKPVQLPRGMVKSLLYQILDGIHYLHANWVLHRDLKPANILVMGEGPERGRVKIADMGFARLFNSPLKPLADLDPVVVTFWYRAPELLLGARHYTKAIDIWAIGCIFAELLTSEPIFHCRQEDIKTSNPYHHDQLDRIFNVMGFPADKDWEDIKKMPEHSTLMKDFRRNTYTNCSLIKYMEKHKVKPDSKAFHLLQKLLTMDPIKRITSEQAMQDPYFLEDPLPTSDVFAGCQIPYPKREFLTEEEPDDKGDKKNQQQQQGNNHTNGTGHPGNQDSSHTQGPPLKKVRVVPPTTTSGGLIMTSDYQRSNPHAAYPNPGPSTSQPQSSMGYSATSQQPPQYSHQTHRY
Sequence of Cyclin-dependent kinase 8/19 (Q9BWU1 whole entry, looked up): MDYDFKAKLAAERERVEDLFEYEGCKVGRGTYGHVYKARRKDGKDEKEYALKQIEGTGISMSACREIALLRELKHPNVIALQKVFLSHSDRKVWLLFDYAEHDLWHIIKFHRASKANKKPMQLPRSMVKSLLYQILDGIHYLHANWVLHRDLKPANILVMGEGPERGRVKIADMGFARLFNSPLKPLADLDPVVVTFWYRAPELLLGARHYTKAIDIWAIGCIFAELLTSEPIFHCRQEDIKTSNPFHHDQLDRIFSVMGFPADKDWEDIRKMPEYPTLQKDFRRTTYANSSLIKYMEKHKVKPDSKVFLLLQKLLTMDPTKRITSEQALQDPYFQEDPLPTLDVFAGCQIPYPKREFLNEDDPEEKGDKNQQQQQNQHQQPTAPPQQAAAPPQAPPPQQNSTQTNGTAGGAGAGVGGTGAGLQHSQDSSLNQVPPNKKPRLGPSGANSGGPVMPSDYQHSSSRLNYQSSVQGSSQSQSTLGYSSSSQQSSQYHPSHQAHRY

## CNC(=O)c1ccc(N2CCCN(c3ccnc4sc(C(N)=O)c(N)c34)CC2)cc1
[1]
  EC200: 54.2 nM

## CN1CCN(C(=O)c2ccc3cc(CCNc4ncnc5ccc(C#N)cc45)ccc3c2)CC1 [SENEXIN B]
CWR22R [2]
  Activity: Active
CWR22R [3]
  Activity: Active
Myc-CaP [4]
  Activity: Active
Myc-CaP [5]
  Activity: Active
Myc-CaP [6]
  inhibition: Active
Myc-CaP [7]
  inhibition: Active
4T1
  Activity: Active

## Cc1ccc(N2CCCN(c3ccnc4sc(C(N)=O)c(N)c34)CC2)cc1
[1]
  EC200: 88.1 nM

## COc1ccc(N2CCCN(c3ccnc4sc(C(N)=O)c(N)c34)CC2)cc1
[1]
  EC200: 115 nM

## CN(C)C(=O)Cc1ccc(N2CCCN(c3ccnc4sc(C(N)=O)c(N)c34)CC2)cc1
[1]
  EC200: 6.6 nM
